Patent US7704953B2, “Phage displayed cell binding peptides” (MDRNA, Inc., priority 2006, dated 2010)

What was measured:
16HBE140- cells = assay: Phage ELISA binding to 16HBE140- cells; assay type: cell-based, human; conditions: unfixed cells; for OD 450 nm: 10^10 pfu/ml, average of triplicate wells; for Binding to 16HBE140- cells (in words): phage ELISA
Protocol: Phage binding to 16HBE140- cells was analyzed using confluent cells grown with DMEM-F12 complete medium in 96-well collagen coated plates (BD Biosciences, San Diego, Calif.) at 37° C. in 5% CO2. The cells were washed with DPBS and phage diluted in DPBS containing 1% BSA (DPBS-BSA) were applied in 100 μl. Bound phage were detected using primary antibody (mouse IgG T7 tail fiber monoclonal antibody diluted 1:2000 in DPBS-BSA) and secondary antibody (goat anti-mouse IgG HRP diluted 1:5000 in DPBS-BSA) followed by detection with OptEIA reagents as above.
Binding of phage T7Select®10-3b displaying Trp cage TC5b (Trp cage) was compared to binding of three phage clones selected from the naïve Trp cage library after 3 rounds of panning against the human bronchial epithelial cell line 16HBE140-. Results represent the average of triplicate wells.

antibody AB167 [1] = assay: Phage ELISA for TAG suppression (binding of antibody AB167); parameters: species or system rabbit; conditions: 10^8 pfu/ml; relative to clone B1 grown in the same host; /B = nonsuppressor BLT5403, /C = suppressor C600CR; average of triplicate wells
Protocol: (§1) Phage purified by double precipitation with PEG was diluted in Dulbecco's PBS (DPBS) and applied to wells of a 96-well Maxisorp® plate (Nalge Nunc International®, Rochester, N.Y.) and allowed to bind for one hour followed by three washes with 400 μl of OptEIA wash buffer (BD Biosciences) and blocking with 1% BSA in TBS-Tween (0.1%). All washes were done at room temperature with slow orbital shaking. Antibody AB 167 diluted 1:500 was applied in PBS-T containing 1% BSA and allowed to bind for one hour at room temperature then washed five times with 400 μl of wash buffer. Bound antibody was detected with the secondary antibody goat anti-rabbit HRP diluted 1:1000 in PBS-T with 1% BSA applied for one hour and washed five times with 400 μl of wash buffer followed by development with OptEIA reagents according to the manufacturer's directions. Means were compared using Student's t-test.
Growth of phage containing the insert encoding Trp cage TC5b in the host BLT5403 which limits expression to 5 to 10 copies of the peptide, produced clones displaying the expected sequence […] (SEQ ID NO: 530) with a low frequency of mutations (one out of twelve sequenced clones). […] Some of the mutant clones contained the TAG stop codon within the Trp cage sequence and were expected to result in the display of truncated peptides. Two nonsense mutants, E7 which contained a TAG stop codon at Tyr-3 of the Trp cage sequence NL*IQWLKDGGPSSGRPPPS (SEQ ID NOs: 588 and 534, respectively in order of appearance) and E12 which contained a TAG stop codon at Trp-6 of the Trp cage sequence NLYIQ*LKDGGPSSGRPPPS (SEQ ID NOs: 535 and 553, respectively in order of appearance), were chosen to test the effectiveness of the suppressor host C600CR by ELISA. […] Since AB167 is a polyclonal antibody, some binding to the truncated peptides of E7 and E12 was expected with possibly greater binding to E12 because it is three residues longer than E7.
Binding of antibody AB167 to T7Select® 10-3b phage grown in the nonsuppressor host BLT5403 (B) was compared with binding to phage grown in the suppressor host C600CR (C). […] Binding of the antibody to phage mutants E7 and E12 displaying truncated Trp cages grown in B (E7/B and E12/B, respectively) was related to antibody binding to phage clone B I displaying the full length Trp cage on a percentage basis. The phage mutants grown in C (E7/C and E12/C) were likewise related to B1 grown in C. Results represent the average of triplicate wells.

HepG2 cells [2] = assay: Fluorescence microscopy with FITC-labeled phage on HepG2 cells; assay type: cell-based, human; conditions: ~e9 pfu per well, 1 hr, visualized at 200×
Protocol: The phage microscopy protocol is as follows:
1. Grow HepG2 cells on collagen I coated glass chamber slides to 100% confluence.
2. On the day of the experiment, wash cells 3 to 5 times ˜300 μl/well of PBS.
3. Fix with 100 μl/well of methanol (chilled at −20C) for 7 min at room temperature.
4. Wash 3-5 times with ˜300 μl/well of PBS.
5. Apply 10 μl/well (˜e9 pfu) of FITC-labeled M13 phage.
6. Incubate on a rotating platform at room temperature for 1 hr in the dark.
7. Wash 5 times with ˜300 μl/well of PBS.
8. Remove chambers, dry, mount, and visualize at 200×.
(§2) Staining by the positive controls was less intense than NLQEFLF (SEQ ID NO: 61).

HepG2 cells [3] = assay: Cell-based ELISA for cell-specific binding, HepG2; parameters: species or system human; conditions: methanol-fixed HepG2 cells, M13 PHD-7 phage clones
Protocol: (§3) For screening cell-specific binding phage display peptides, confluent HepG2 or HUVEC cells grown in DMEM-F12-complete in a 96-well plate fixed with methanol, stored at 4° C. Applied 250 μl/well of diluted phage and incubated in wells for 1 hour while shaking. Stopped reactions with 75 ul of 1M HCl after ˜5-7 min, read at 450 nm.
(§4) Representative display peptides isolated from panning against either HepG2 or HUVEC cells with the Trp cage and M13 libraries were tested for cell-specific binding. The peptide having the amino acids sequence SIGYLPL (SEQ ID NO: 532) and the peptide having the amino acid sequence LTAELTP (SEQ ID NO: 533) served as positive HepG2 binding controls. The 7-mer display peptide represented by the amino acid sequence HPQ served as a negative binding control.
as §2

HUVEC cells = assay: Cell-based ELISA for cell-specific binding, HUVEC; parameters: species or system human; conditions: M13 PHD-7 phage clone
Protocol: as §3, §4, §2

antibody AB167 [4] = assay: Phage ELISA with antibody AB167 for display of Trp cage TC5b on the phage capsid; assay type: binding, rabbit; conditions: 1×10^6, 1×10^7 and 1×10^8 phage per well
Protocol: as §1
Two negative controls were used. One was the 10-3b vector with no insert and the other was the 10-3b vector containing the S-Tag. All phage were incubated with the AB167 antibody at 1×10^6, 1×10^7 and 1×10^8 phage per well for the ELISA.

antibody AB167 [5] = assay: Western analysis of phage lysates with antibody AB167; assay type: binding, rabbit; conditions: SDS-PAGE separated proteins, AB167 diluted 1:2500
Protocol: For Western analysis, phage were purified by double precipitation with PEG and denatured by boiling in Tris-Glycine SDS sample buffer (2×) with 1% beta-mercaptoethanol (BME). A 10 μl sample containing 1×10^11 pfu/ml was loaded into a well of a 1 mm 4% to 20% Tris-Glycine gel (Invitrogen®) and electrophoresed for 1.5 hours at 150 volts (constant voltage) in Tris-Glycine SDS running buffer. The separated proteins were transferred to a PVDF membrane (1.5 hours at room temperature) and blocked with 3% non-fat dry milk in TBS-T (0.05%) for one hour at room temperature. The membrane was probed for two hours with antibody AB167 diluted 1:2500 at room temperature followed by three five minute washes with TBS-T. Goat anti-rabbit HRP diluted 1:5000 was used to detect the bound AB167 antibody. It was incubated with the membrane for one hour at room temperature followed by four 10 minute washes and the membrane was developed with SuperSignal West Femto Maximum Sensitivity Substrate® (Pierce®) according to the manufacturer's instructions. MagicMark XP Western Protein Standards were used for size reference standards.
For the Western blot analysis of Trp cage TC5b expressed with the 10-3b T7Select® vector, proteins in lysates from phage infected cells were separated by SDS-PAGE in Coomasie stained gel. […]

Substance | OD 450 nm (16HBE140- cells) | Percent antibody binding (antibody AB167 [1]) | other results
DAYPQWLFTPGPTSGRPPPL* [624-55-21] | 0.15 | – | –
DPYAQWLQSMGPHSGRPPPR* [624-55-29] | 0.39 | – | Binding to 16HBE140- cells (in words) (16HBE140- cells): demonstrated binding
DRYPQWLNGMGPSSGRPPPN* [624-55-20] | 0.22 | – | –
NL*IQWLKDGGPSSGRPPPS [E7/B] | – | 32% | –
NL*IQWLKDGGPSSGRPPPS [E7/C] | – | 65% | –
NLQEFLF [M13 PHD-7 phage display peptide isolated by panning against HepG2 cells] | – | – | Binding/staining of FITC-labeled phage on methanol-fixed HepG2 cells (HepG2 cells [2]): bound; Binding to HepG2 cells (cell-based ELISA) (HepG2 cells [3]): HepG2 specific binding; Binding to HUVEC cells (cell-based ELISA) (HUVEC cells): did not bind
NLYIQ*LKDGGPSSGRPPPS [E12/B] | – | 50% | –
NLYIQ*LKDGGPSSGRPPPS [E12/C] | – | 62% | –
NLYIQWLKDGGPSSGRPPPS [10-3b/TC5b, reference compound] | 0.22 | – | ELISA signal with antibody AB167 (antibody AB167 [4]): signal was detected; Binding to 16HBE140- cells (in words) (16HBE140- cells): low; Binding of antibody AB167 to protein of phage lysate (Western blot) (antibody AB167 [5]): contained a protein that bound the Trp cage specific antibody AB167
NLYIQWLKDGGPSSGRPPPS [B1/C] | – | 100% | –
